Results taken from patent US8470889B2 (TRT Pharma Inc., priority 2008, dated 2013).
Read-outs that look alike come from different tables or passages of the source.

Legend:
[1] = system: C4-2B cells; assay: MTT cell growth inhibition, C4-2B;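 also: cells treated with a dilution series for 72 h, then MTT added and absorbance read at 600 nm, IC50 fitted from dose-response curves by nonlinear regression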
Description: (§1) MDA PCa 2b was seeded at the same density in medium BRFF-HPC1 (Athena Enzyme Systems, Baltimore, Md., USA) supplemented with 20% FBS. After overnight incubation, the medium was changed to a fresh medium containing different concentrations of test compounds diluted from stock DMSO solution. The final concentration of DMSO is 0.5%. After 72 h of incubation with test compounds, 20 μL of 3-(4,5-dimethyl thiazol-2-yl)-2,5-diphenyltetrazolium bromide (MTT) solution (5 mg/mL in PBS) were added to each well and incubated further for 2 h. Next, the supernatant was aspirated and the MTT formazan formed by metabolically viable cells was dissolved in 100 μL of isopropanol. The plates were mixed for 30 min, and the absorbance was measured at 600 nm on a plate reader (FLUOstar OPTIMA, BMG LabTech). All samples were in triplicate. The IC50 values were determined from dose-response curves by nonlinear regression using PRISM v5.00 (GraphPad Software Inc, La Jolla, Calif., USA).
(§2) The in vitro cytotoxicity of 1-20 were evaluated by MTT assays in a panel of prostate cancer cell lines, including LNCaP, MDA PCa 2b, 22Rv1, C4-2B and PC-3.

[2] = system: 22Rv1 cells; assay: MTT cell growth inhibition, 22Rv1; details: MTT
[3] = system: PC-3 cells; assay: MTT cell growth inhibition, PC-3; details: for Cellular IC50 (μM) PC-3: Table 2, 72 h, max tested 50 μM (β-ionone 150 μM); for Cellular IC50 (μM) PC3: Table 8
Description: as §1, §2

[4] = system: LNCaP cells; assay: MTT cell growth inhibition, LNCaP;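 also: MTT formazan absorbance at 600 nm read after 72 h of compound exposure, IC50 fitted by nonlinear regression of dose-response curves, samples run in triplicate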
Description: as §1, §2

[5] = read-out: IC50 (μM) C4-2B, Table 1, 72 h
[6] = read-out: IC50 (μM) 22Rv1, Table 1, 72 h
[7] = read-out: IC50 (μM) PC-3, Table 1, 72 h, maximum tested concentration 50 μM
[8] = read-out: IC50 (μM) LNCaP, Table 1, 72 h
[9] = read-out: Cellular IC50 (μM) C4-2B, Table 2, 72 h
[10] = read-out: Cellular IC50 (μM) 22Rv1, Table 2, 72 h
[11] = read-out: Cellular IC50 (μM) PC-3, Table 2, 72 h, max tested 50 μM (β-ionone 150 μM)
[12] = read-out: Cellular IC50 (μM) LNCaP, Table 2, 72 h
[13] = read-out: Cellular IC50 (μM) PC3, Table 8
[14] = read-out: Cellular IC50 (μM) LNCaP, Table 8
[15] = read-out: Cellular IC50 (μM) 22Rv1, Table 8
[16] = read-out: Cellular IC50 (μM) C4-2B, Table 8
[17] = read-out: Cellular IC50 (μM) 22Rv1, Table 9
[18] = read-out: Cellular IC50 (μM) PC-3, Table 9
[19] = read-out: Cellular IC50 (μM) LNCaP, Table 9

SMILES | IC50 [3, 13] [µM] | IC50 [4, 14] [µM] | IC50 [2, 15] [µM] | IC50 [1, 16] [µM] | other results
COc1cc(/C=C/C(O)=C/C(=O)/C=C/C2=C(C)CCCC2(C)C)ccc1O [Compound 1] |  |  |  |  | IC50 [1, 5]: 44.3 µM; IC50 [2, 6]: 10.6 µM; IC50 [3, 7]: 15.8 µM; IC50 [4, 8]: 20.6 µM
COc1ccc(/C=C/C(O)=C/C(=O)/C=C/C2=C(C)CCCC2(C)C)cc1O [Compound 2] |  |  |  |  | IC50 [1, 5]: 23.1 µM; IC50 [3, 7]: 38.3 µM; IC50 [4, 8]: 25.9 µM
COc1ccc(/C=C/C(O)=C/C(=O)/C=C/C2=C(C)CCCC2(C)C)cc1OC [Compound 3] |  |  |  |  | IC50 [1, 5]: 30.6 µM; IC50 [3, 7]: 47.9 µM; IC50 [4, 8]: 26.4 µM
CCOc1ccc(/C=C/C(O)=C/C(=O)/C=C/C2=C(C)CCCC2(C)C)cc1OCC [Compound 4] |  |  |  |  | IC50 [1, 5]: 22.6 µM; IC50 [3, 7]: 53.3 µM; IC50 [4, 8]: 30 µM
CC1=C(/C=C/C(=O)/C=C(O)/C=C/c2ccc(O)cc2)C(C)(C)CCC1 [Compound 5] |  |  |  |  | IC50 [1, 5]: 5.7 µM; IC50 [2, 6]: 12.6 µM; IC50 [3, 7]: 50.6 µM; IC50 [4, 8]: 18.6 µM
COc1cc(/C=C/C(O)=C/C(=O)/C=C/C2=C(C)CCCC2(C)C)cc(OC)c1O [Compound 6] |  |  |  |  | IC50 [1, 5]: 9.8 µM; IC50 [2, 6]: 12.2 µM; IC50 [3, 7]: 26.7 µM; IC50 [4, 8]: 6.2 µM
COc1cc(/C=C/C(O)=C/C(=O)/C=C/C2=C(C)CCCC2(C)C)cc(OC)c1OC [Compound 7] |  |  |  |  | IC50 [1, 5]: 11.9 µM; IC50 [2, 6]: 17.1 µM; IC50 [3, 7]: > 50 µM; IC50 [4, 8]: 21.4 µM
COc1ccc(/C=C/C(O)=C/C(=O)/C=C/C2=C(C)CCCC2(C)C)cn1 [Compound 8] |  |  |  |  | IC50 [3, 7]: 52.2 µM; IC50 [4, 8]: 25.1 µM
COc1ccc(C=CC(=O)C(=Cc2ccc(OC)c(O)c2)C(=O)C=CC2=C(C)CCCC2(C)C)cc1O [Compound 11] |  |  |  |  | IC50 [1, 9]: 4.5 µM; IC50 [2, 10]: 5.2 µM; IC50 [3, 11]: 29.2 µM; IC50 [4, 12]: 7.3 µM
COc1ccc(C=CC(=O)C(=Cc2ccc(OC)c(OC)c2)C(=O)C=CC2=C(C)CCCC2(C)C)cc1OC [Compound 12] |  |  |  |  | IC50 [1, 9]: 54.4 µM; IC50 [2, 10]: 49.7 µM; IC50 [3, 11]: 34.3 µM; IC50 [4, 12]: 15.9 µM
COc1cc(C=CC(=O)C(=Cc2cc(OC)c(OC)c(OC)c2)C(=O)C=CC2=C(C)CCCC2(C)C)cc(OC)c1OC [Compound 16] |  |  |  |  | IC50 [1, 9]: 2.2 µM; IC50 [2, 10]: 1.5 µM; IC50 [3, 11]: 5.9 µM; IC50 [4, 12]: 3.4 µM
COc1ccc(/C=C/C(=O)/C(=C/c2ccc(OC)nc2)C(=O)/C=C/C2=C(C)CCCC2(C)C)cn1 [Compound 17] |  |  |  |  | IC50 [1, 9]: 12.2 µM; IC50 [2, 10]: 9.9 µM; IC50 [3, 11]: 31 µM; IC50 [4, 12]: 15.7 µM
CCn1c2ccccc2c2cc(/C=C(\C(=O)/C=C/C3=C(C)CCCC3(C)C)C(=O)/C=C/c3ccc4c(c3)c3ccccc3n4CC)ccc21 [Compound 18] |  |  |  |  | IC50 [1, 9]: 28.5 µM; IC50 [2, 10]: 31.6 µM; Cellular IC50 (μM) PC-3 [3]: Inactive^c; IC50 [4, 12]: 11.8 µM
COc1cc(/C=C/C(=O)/C(=C/c2ccc3ccccc3n2)C(=O)/C=C/C2=C(C)CCCC2(C)C)ccc1O [Compound 20] |  |  |  |  | IC50 [1, 9]: 5.3 µM; IC50 [2, 10]: 5.1 µM; IC50 [3, 11]: 15.2 µM; IC50 [4, 12]: 8.5 µM
CC1=C(/C=C/C(=O)/C=C/c2cccc(OC(F)(F)F)c2)C(C)(C)CCC1O (centres unmarked) [Compound B46] | 1.7 | 1.4 |  |  | 
CC1=C(/C=C/C(=O)/C=C/c2cccc(OC(F)(F)C(F)F)c2)C(C)(C)CCC1O (centres unmarked) [Compound B47] | 4.6 | 1.6 | 1.8 |  | 
CC1=C(/C=C/C(=O)/C=C/c2ccc(C)cc2)C(C)(C)CCC1O (centres unmarked) [Compound B51] | 18.6 | 11.5 | 12.3 | 5.9 | 
CC1=C(/C=C/C(=O)/C=C/c2ccc(O)cc2)C(C)(C)CCC1O (centres unmarked) [Compound B52] |  | 8.9 | 10.6 |  | Cellular IC50 (μM) PC3 [3]: Int
COc1ccc(/C=C/C(=O)/C=C/C2=C(C)C(O)CCC2(C)C)cc1 (centres unmarked) [Compound B53] |  | 13.3 | 20.3 | 10.3 | Cellular IC50 (μM) PC3 [3]: Int
CC1=C(/C=C/C(=O)/C=C/c2ccc(OC(F)(F)F)cc2)C(C)(C)CCC1O (centres unmarked) [Compound B54] | 6.6 | 1.3 |  |  | 
CC1=C(/C=C/C(=O)/C=C/c2ccc(OC(F)(F)C(F)F)cc2)C(C)(C)CCC1O (centres unmarked) [Compound B55] | 12.3 | 5.4 | 7.7 | 4.6 | 

SMILES | IC50 [3, 13] [µM] | IC50 [4, 14] [µM] | IC50 [2, 15] [µM] | IC50 [1, 16] [µM] | other results
CC1=C(/C=C/C(=O)/C=C/c2ccc(-c3cncnc3)cc2)C(C)(C)CCC1O (centres unmarked) [Compound B58] | 4.3 | 1.5 | 3.8 | 2.1 | 
CC1=C(/C=C/C(=O)/C=C/c2ccc(N3CCCCC3)cc2)C(C)(C)CCC1O (centres unmarked) [Compound B59] | 22.5 | 17.8 | 31.2 | 19.7 | 
CC1=C(/C=C/C(=O)/C=C/c2ccc(N3CCOCC3)cc2)C(C)(C)CCC1O (centres unmarked) [Compound B60] | 16 | 3.9 |  |  | 
CCOC(OCC)c1ccc(/C=C/C(=O)/C=C/C2=C(C)C(O)CCC2(C)C)cc1 (centres unmarked) [Compound B61] | 3.7 | 1.8 | 2.1 | 1.7 | 
CC1=C(/C=C/C(=O)/C=C/c2ccc(N(CCO)CCO)cc2)C(C)(C)CCC1O (centres unmarked) [Compound B62] | 6.9 | 1.4 | 4.3 | 1.7 | 
CC1=C(/C=C/C(=O)/C=C/c2ccc(N(C)C)cc2)C(C)(C)CCC1O (centres unmarked) [Compound B63] | 13 | 8.8 | 42 |  | 
CC1=C(/C=C/C(=O)/C=C/c2ccccc2C)C(C)(C)CCC1O (centres unmarked) [Compound B64] | 7.6 | 2.5 | 4.6 | 2.7 | 
COc1ccccc1/C=C/C(=O)/C=C/C1=C(C)C(O)CCC1(C)C (centres unmarked) [Compound B65] | 7.1 | 1.9 | 4.6 | 2.6 | 
CC1=C(/C=C/C(=O)/C=C/c2cc(F)ccc2F)C(C)(C)CCC1O (centres unmarked) [Compound B66] | 7.2 | 3.5 | 4.5 | 6.9 | 
CC1=C(/C=C/C(=O)/C=C/c2ccc(F)cc2F)C(C)(C)CCC1O (centres unmarked) [Compound B67] | 7.5 | 4.3 | 4.8 | 2.1 | 
COc1ccc(/C=C/C(=O)/C=C/C2=C(C)C(O)CCC2(C)C)cc1O (centres unmarked) [Compound B69] | 53.9 | 12.3 | 19.1 | 12 | 
COc1ccc(/C=C/C(=O)/C=C/C2=C(C)C(O)CCC2(C)C)cc1OC (centres unmarked) [Compound B70] | 6.8 | 2.1 | 8.2 |  | 
CCOc1ccc(/C=C/C(=O)/C=C/C2=C(C)C(O)CCC2(C)C)cc1OCC (centres unmarked) [Compound B71] | 36.1 | 5.5 | 8.6 | 10.5 | 
COc1cc(/C=C/C(=O)/C=C/C2=C(C)C(O)CCC2(C)C)cc(OC)c1OC (centres unmarked) [Compound B72] | 4.9 | 1.8 | 3 | 1.7 | 
COc1cc(OC)c(OC)cc1/C=C/C(=O)/C=C/C1=C(C)C(O)CCC1(C)C (centres unmarked) [Compound B73] | 9.5 | 3.7 | 5.4 | 3.2 | 
COc1cc(OC)c(/C=C/C(=O)/C=C/C2=C(C)C(O)CCC2(C)C)c(OC)c1 (centres unmarked) [Compound B74] | > 25 | 15.5 | 21 | 11.6 | 
CC1(C)CCC(O)C=C1/C=C/C(=O)/C=C/c1ccc2c(c1)OCO2 (centres unmarked) [Compound B76] |  |  |  |  | IC50 ([1]; read-out: Cellular IC50 (μM) C4-2B, Table 9): 6.2 µM; IC50 [2, 17]: 20.1 µM; IC50 [3, 18]: 25.8 µM; IC50 [4, 19]: 11.2 µM
CC1(C)CCC(O)C=C1/C=C/C(=O)/C=C/c1ccc2c(c1)OC(F)(F)O2 (centres unmarked) [Compound B77] |  |  |  |  | IC50 [3, 18]: 3.2 µM; IC50 [4, 19]: 1.1 µM
Cn1c(/C=C/C(=O)/C=C/C2=CC(O)CCC2(C)C)cc2ccccc21 (centres unmarked) [Compound B80] |  |  |  |  | IC50 [2, 17]: 9.5 µM; IC50 [3, 18]: 19.8 µM; IC50 [4, 19]: 7 µM
CCn1c2ccccc2c2cc(/C=C/C(=O)/C=C/C3=CC(O)CCC3(C)C)ccc21 (centres unmarked) [Compound B91] |  |  |  |  | IC50 [2, 17]: 4.7 µM; IC50 [3, 18]: 8.6 µM; IC50 [4, 19]: 3.8 µM
CC(=O)/C=C/C1=C(C)CCCC1(C)C [β-Ionone, reference compound] |  |  |  |  | Cellular IC50 (μM) PC-3 [3]: Inactive^e; Cytotoxicity, IC50 (μM) PC-3 ([3]; Table 5, β-ionone max tested 150 μM): Inactive^b; IC50 [4, 12]: 151 µM; IC50 ([4]; read-out: Cytotoxicity, IC50 (μM) LNCaP, Table 5): 151 µM

More lines, main results first:

IC50 [3, 13] [µM] | IC50 [4, 14] [µM] | IC50 [2, 15] [µM] | SMILES | IC50 [1, 16] [µM] | other results
2 | 2.4 |  | CC1=C(/C=C/C(=O)/C=C/c2cccc(Oc3ccccc3)c2)C(C)(C)CCC1O (centres unmarked) [Compound B48] |  | 
8 | 5 | 5.4 | CC1=C(/C=C/C(=O)/C=C/c2cccc(OCc3ccccc3)c2)C(C)(C)CCC1O (centres unmarked) [Compound B49] | 2.6 | 
11.5 | 10.4 | 10.4 | CC1=C(/C=C/C(=O)/C=C/c2ccc(Oc3ccccc3)cc2)C(C)(C)CCC1O (centres unmarked) [Compound B56] | 7.5 | 
11.9 | 2.9 | 5.2 | CC1=C(/C=C/C(=O)/C=C/c2ccc(-c3ccccc3)cc2)C(C)(C)CCC1O (centres unmarked) [Compound B57] | 6 | 
25.4 | 16.7 | 19.2 | COc1cc(/C=C/C(=O)/C=C/C2=C(C)C(O)CCC2(C)C)c(OCc2ccccc2)cc1OC (centres unmarked) [Compound B75] | 23.3 | 
